From US20230279024A1, “TRIAZINE COMPOUND AND COMPOSITION AND USE THEREOF” (BEIJING FINDCURE BIOSCIENCES, LTD., priority 2020, published 2023)

How the values were obtained:
[1] = system: CYP3A4/5; experiment: Inhibition of human liver microsomes CYP450, 3A4/5; type: in vitro ADME; details: compounds 10 μM (positive control: concentration not given)
[2] = system: Ba/F3 AXL cells; experiment: Cell activity test: growth inhibition of Ba/F3 AXL cell line (CTG, 72 h); type: cell-based; details: Mus musculus, BaF3
Procedure: This experiment was conducted by detecting the inhibitory effect of compounds on the growth of Ba/F3 AXL cell line and Ba/F3 parental cell line. Cells in logarithmic growth stage were harvested and counted by platelet counter. Trypan blue rejection method was used to detect cell viability to ensure that the cell viability was above 90%. Adjust cell concentration; 90 μL cell suspension was added to 96-well plates, respectively; Cells in 96-well plates were cultured overnight at 37° C., 5% CO2 and 95% humidity. A 10-fold drug solution was prepared, with the highest concentration of 10 μM, and a total of 9 concentrations were diluted at 3.16 times the ratio. 10 μL drug solution was added to each well of the 96-well plate inoculated with cells, and three wells were set for each drug concentration; 96-well plates were incubated at 37° C., 5% CO2 and 95% humidity for 72 h, and CTG analysis was performed. Thaw the CTG reagent and balance the cell plates to room temperature for 30 minutes. Add the same volume of CTG solution to each well and vibrate on a fixed-rail shaker for 5 minutes to crack the cells. Place the cell plates at room temperature for 20 minutes to stabilize the cold light signal and read the cold light value. The GraphPad Prism 5.0 software was used to analyze the data, and the nonlinear S-curve regression was used to fit the data to obtain the dose-effect curve, and the IC50 value was calculated accordingly. Cell survival rate (%)=(Lum drug to be tested −Lum culture medium control)/(Lum cell control−Lum culture medium control)×100%.

[3] = target: CYP2D6 (Homo sapiens (Human), UniProt P10635); experiment: Inhibition of human liver microsomes CYP450, 2D6; type: in vitro ADME; details: compounds 10 μM (positive control: concentration not given)
CYP2D6, sequence (P10635 whole entry): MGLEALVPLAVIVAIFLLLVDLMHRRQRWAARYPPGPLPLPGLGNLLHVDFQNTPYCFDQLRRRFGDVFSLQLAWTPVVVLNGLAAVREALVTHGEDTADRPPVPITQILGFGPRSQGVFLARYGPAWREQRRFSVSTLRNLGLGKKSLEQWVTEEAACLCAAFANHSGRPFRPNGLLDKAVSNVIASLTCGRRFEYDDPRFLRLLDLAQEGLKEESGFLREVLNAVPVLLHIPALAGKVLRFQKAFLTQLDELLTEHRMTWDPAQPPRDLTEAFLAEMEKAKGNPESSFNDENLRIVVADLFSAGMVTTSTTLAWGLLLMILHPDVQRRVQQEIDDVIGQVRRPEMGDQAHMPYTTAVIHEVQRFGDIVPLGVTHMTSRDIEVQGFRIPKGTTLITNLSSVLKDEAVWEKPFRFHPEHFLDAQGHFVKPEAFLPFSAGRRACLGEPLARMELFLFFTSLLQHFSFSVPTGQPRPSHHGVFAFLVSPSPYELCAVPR

[4] = target: CYP1A2 (Homo sapiens (Human), UniProt P05177); details: microsomes, 10 µM
CYP1A2, sequence (P05177 whole entry): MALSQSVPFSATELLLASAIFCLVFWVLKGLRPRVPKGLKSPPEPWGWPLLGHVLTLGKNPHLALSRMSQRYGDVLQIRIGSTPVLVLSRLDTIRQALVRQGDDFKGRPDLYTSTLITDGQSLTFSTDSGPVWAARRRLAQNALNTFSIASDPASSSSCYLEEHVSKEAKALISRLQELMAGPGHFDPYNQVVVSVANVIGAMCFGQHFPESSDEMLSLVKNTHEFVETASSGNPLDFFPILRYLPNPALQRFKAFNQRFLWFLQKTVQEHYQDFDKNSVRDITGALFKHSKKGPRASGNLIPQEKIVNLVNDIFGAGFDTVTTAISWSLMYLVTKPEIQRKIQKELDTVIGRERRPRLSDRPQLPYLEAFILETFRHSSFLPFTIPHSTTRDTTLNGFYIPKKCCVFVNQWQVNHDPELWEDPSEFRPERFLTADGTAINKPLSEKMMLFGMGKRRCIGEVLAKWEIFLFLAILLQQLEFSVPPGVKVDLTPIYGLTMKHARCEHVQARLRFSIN

[5] = target: T1, CYP3A4 (Homo sapiens (Human), UniProt P08684); details: hepatocytes, 2 days, 10 μM
Procedure: (§1) Cryopreservation of human primary hepatocytes was resuscitated in medium after take out from liquid nitrogen. […] Plates were incubated at 37° C. and 5% CO2 for 4-6 hours to confirm the formation of monolayer cells attached to the wall. Then the adherent culture medium was changed into hepatocyte culture medium and the culture was continued overnight.
After the test compound and positive control inducer were co-incubated with cells, the medium was removed and mercaptoethanol was added for cell lysis. Total RNA in cells was extracted with RNA extraction kit, and then transcribed into cDNA with cDNA reverse transcription kit. The 10 μL cDNA template was taken and analyzed on the fluorescence quantitative PCR instrument to obtain the Ct value.
The gene expression data were corrected by internal reference 18S, and the relative expression differences were determined by the method of ΔΔCt commonly used in fluorescence quantitative PCR.
The ΔCt, ΔΔCt and relative expression difference values of the target genes were calculated according to the following formula:
ΔCt=Ct value of target gene−Ct value of internal reference 18S
ΔΔCt=ΔCt of experimental group or positive control group−ΔCt of blank control group
Relative expression difference (fold of induction)=2−ΔΔ^Ct

[6] = target: T1, CYP3A4; details: hepatocytes, 2 days, 10 μM; remark: listed apart in the source
Procedure: as §1
After the test compounds and positive control inducers were co-incubated with cells, the incubation medium was removed. […] After the samples were extracted and processed, the generation of metabolites and the kinase activities of CYP1A2, 2B6 and 3A4 was quantitatively detected by LC-MS/MS, respectively.
The induction of test substance on each subenzyme was determined by detecting the generation rate of metabolites of CYP450 subenzyme substrates. The relative activity of each subenzyme was expressed as a percentage of the relative blank control, and the data were calculated according to the following formula:
Fold of induction=sample subenzyme activity/blank subenzyme activity
Relative positive control activity (PC %)=(Fold of induction of sample group—Fold of induction of blank group)/(Fold of induction of positive control group—Fold of induction of blank group)×100

[7] = target: AXL (h) kinase (Homo sapiens (Human), UniProt P30530); experiment: AXL (h) kinase activity test (EZ Reader mobility shift, FLPeptide30); type: biochemical; details: ATP 100 μM, AXL 1 nM
AXL (h) kinase, sequence (P30530 473-894): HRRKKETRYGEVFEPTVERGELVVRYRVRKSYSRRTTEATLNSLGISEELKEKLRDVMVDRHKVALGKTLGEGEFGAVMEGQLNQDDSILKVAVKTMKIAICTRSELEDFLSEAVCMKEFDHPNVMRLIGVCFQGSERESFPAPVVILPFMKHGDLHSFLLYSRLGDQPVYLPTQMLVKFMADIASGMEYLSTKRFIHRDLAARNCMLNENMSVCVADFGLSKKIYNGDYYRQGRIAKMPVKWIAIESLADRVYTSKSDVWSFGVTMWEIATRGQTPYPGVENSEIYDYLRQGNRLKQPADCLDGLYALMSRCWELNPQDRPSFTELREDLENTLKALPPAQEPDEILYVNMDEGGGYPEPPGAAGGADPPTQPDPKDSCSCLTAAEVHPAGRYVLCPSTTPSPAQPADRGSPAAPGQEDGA
Procedure: The effect of the disclosed compounds as protein kinase inhibitors can be evaluated by the following experiments. The AXL (h) kinase activity of the compounds of the invention is tested by the following methods:
Reagents used in the experiment were AXL (Carna Bioscience, Cat No.: 08-107) and FLPeptide30 (PerkinElmer, Cat No.: 760430). The instruments involved were thermotank (Thermo Scientific), oscillator (QILINBEIER), EZ Reader (PerkinElmer, Cat No.: 122919), Non-contact stage pipetting system (Labcyte Inc., Cat No.: Echo 550), and non-contact nanoliter pipetting system (TECAN, Cat No.: EVO200).
Compound dilution: 1) Dissolve the compound in DMSO to the appropriate concentration; 2) Using TECAN EVO200 to dilute 10 concentrations in 384 microplates by three times gradient, the highest concentration is 1 mM; Echo550 was used to transfer 20 nL solution from the dilution plate to the test plate.
2) Add 15 μL solution 1 to each well of the test plate and incubate at room temperature for 30 minutes.
4) Add 5 μL solution 2 to start the reaction, and the final volume of each well is 20 μL.
5) Incubated at 25° C. for 90 min, and then added 75 μL stop solution (containing 0.5 M EDTA) to terminate the reaction.
6) The sample of each well was analyzed using EZ reader.
1) Based on the measured conversion rate (CR), the Remaining Activity (%) of the kinase was calculated according to the following function:
2) XLFit (Equation 201) software was used to fit IC50.
The above methods can be used to obtain the inhibitory IC50 and/or inhibitory constant Ki.

SMILES | Inhibitory rate (%) 3A4/5 [1] | IC50 [2] [nM] | Inhibitory rate (%) 2D6 [3] | Inhibitory rate (%) 1A2 [4] | Gene expression CYP3A4 Fold of induction [5] | Enzymatic activity CYP3A4 Fold of induction [6] | IC50 [7] [nM]
CC(C)C(=O)N1CCC(c2cc(-c3ccc(NC(=O)c4c5n(n(-c6ccccc6)c4=O)CCCC5)nc3)c3c(N)ncnn23)CC1 [example 11, N-(5-(4-amino-7-(1-isobutyrylpiperidin-4-yl)pyrrolo[2,1-f][1,2,4]triazin-5-yl)pyridin-2-yl)-2-oxo-1-phenyl-1,2,4,5,6,7-hexahydropyrazolo[1,5-a]pyridine-3-carboxamide] | No inhibition | < 5 | No inhibition |  |  |  | 
Nc1ncnn2c(C3CCC(O)CC3)cc(-c3ccc(NC(=O)c4c5n(n(-c6ccccc6)c4=O)CCCC5)nc3)c12 (stereo not shown) [example 21, N-(5-(4-amino-7-(4-hydroxycyclohexyl)pyrrolo[2,1-f][1,2,4]triazin-5-yl)pyridin-2-yl)-2-oxo-1-phenyl-1,2,4,5,6,7-hexahydropyrazolo[1,5-a]pyridine-3-carboxamide] | No inhibition | < 5 | No inhibition | No inhibition |  |  | 
CC(C)C(=O)N1CCC(c2cc(-c3ccc(NC(=O)c4c5n(n(-c6ccccc6)c4=O)CCOC5)cc3)c3c(N)ncnn23)CC1 [example 3, N-(4-(4-amino-7-(1-isobutyrylpiperidin-4-yl)pyrrolo[2,1-f][1,2,4]triazin-5-yl)phenyl)-2-oxo-1-phenyl-2,4,6,7-tetrahydro-1H-pyrazolo[5,1-c][1,4]oxazine-3-carboxamide] | No inhibition | < 5 |  |  | 4.40 | 0.801 | 5 to 50
Nc1ncnn2c1c(-c1ccc(NC(=O)c3c4n(n(-c5ccccn5)c3=O)CCOC4)cc1F)cc2[C@H]1CC[C@H](O)CC1 [example 31, N-(4-(4-amino-7-((1r,4r)-4-hydroxycyclohexyl)pyrrolo[2,1-f][1,2,4]triazin-5-yl)-3-fluorophenyl)-2-oxo-1-(pyridin-2-yl)-2,4,6,7-tetrahydro-1H-pyrazolo[5,1-c][1,4]oxazine-3-carboxamide] | No inhibition | < 5 |  |  | 0.944 | 0.913 | 5 to 50
CC(C)C(=O)N1CCC(c2cc(-c3ccc(NC(=O)c4c5n(n(-c6ccccc6)c4=O)CCOC5)cc3F)c3c(N)ncnn23)CC1 [example 8, N-(4-(4-amino-7-(1-isobutyrylpiperidin-4-yl)pyrrolo[2,1-f][1,2,4]triazin-5-yl)-3-fluorophenyl)-2-oxo-1-phenyl-2,4,6,7-tetrahydro-1H-pyrazolo[5,1-c][1,4]oxazine-3-carboxamide] |  | < 5 | No inhibition |  |  |  | 5 to 50
CC(C)C(=O)N1CCC(c2cc(-c3ccc(NC(=O)c4c5n(n(-c6ccccc6)c4=O)CCCC5)cc3F)c3c(N)ncnn23)CC1 [example 16, N-(4-(4-amino-7-(1-isobutyrylpiperidin-4-yl)pyrrolo[2,1-f][1,2,4]triazin-5-yl)-3-fluorophenyl)-2-oxo-1-phenyl-1,2,4,5,6,7-hexahydropyrazolo[1,5-a]pyridine-3-carboxamide] | No inhibition | < 5 |  |  | 276 | 1.26 | 5 to 50
